Consider 2 compounds from patent publication US20220249441A1, “Homodimeric Tobramycin Adjuvant Repurposes Novobiocin as an Effective Antibacterial Agent Against Gram-Negative Bacteria” (priority 2019, published 2022).

The test system of assay [1] is P. aeruginosa PAO1. As to the kind of experiment: Outer membrane permeabilization assay (NPN uptake). It is filed as cell-based, Pseudomonas aeruginosa. The method, then: Outer Membrane Permeabilization Assay. […] Briefly, an overnight grown P. aeruginosa PAO1 culture was subcultured (1 in 100) in fresh LB broth and grown to a mid-logarithmic phase (approximately 2 h, OD600=0.5-0.6). The cells were harvested by centrifuging for 10 min at 1000 g and room temperature, washed twice in PBS, and resuspended in half volume of PBS. This suspension was used in standard microtiter plate assay. […] PMBN, a known outer membrane permeabilizer, served as a positive control while cells +NPN (without test compounds) served as a negative control. Four independent replicates were conducted, and the data were corrected for any background fluorescence.

In assay [2] the test system is P. aeruginosa PAO1 and efflux deficient mutants, MDR/XDR isolates. Briefly: microbe, parasite or virus in culture. It is filed as cell-based, Pseudomonas aeruginosa. The method, then:
Antimicrobial Susceptibility Assay. The in vitro antimicrobial activity of all compounds/antibiotics against a panel of bacteria was evaluated by microbroth dilution method in accordance with the Clinical and Laboratory Standards Institute (CLSI) guidelines (using ATCC strains as quality control strains) (54). […] The broth with or without bacterial cells was used as positive or negative control, respectively.

Assay [3] relates to P. aeruginosa PAO1. As to the kind of experiment: Time-kill assay. It is filed as cell-based, Pseudomonas aeruginosa. As to conditions: LB media, novobiocin 32 μg/ml, compound 1 7.1 μM, 24 h. The method, then:
(§1) Time-kill Assay. […] At specific time intervals (0, 1, 3, 6, 9, and 24 h), 100 μl was taken from each sample, serially diluted in sterile PBS, plated on LB agar plates, and incubated at 37° C. in a humid 5% CO2-enriched atmosphere. Bacterial colonies were counted after 20 h of incubation.

In assay [4] the test system is A. baumannii ATCC 17978. As to the kind of experiment: Time-kill assay. In kind it is cell-based, Acinetobacter baumannii. As to conditions: novobiocin 32 μg/ml, after 24 h. The method, then: as §1
Assay [5] concerns K. pneumoniae 116381. As to the kind of experiment: Time-kill assay. It is filed as cell-based, Klebsiella pneumoniae. As to conditions: LB media, novobiocin 32 μg/ml, compound 1 7.1 μM, 24 h. The method, then: as §1
In assay [6] the test system is E. coli ATCC 25922. As to the kind of experiment: Time-kill assay. As to conditions: novobiocin 32 μg/ml, compound 1 7.1 μM. It is filed as cell-based, Escherichia coli. The method, then: as §1

For `NC[C@H]1O[C@H](O[C@H]2[C@H](OCCCCc3cn(CCCCO[C@@H]4[C@@H](O[C@H]5O[C@H](CO)[C@@H](O)[C@H](N)[C@H]5O)[C@H](N)C[C@H](N)[C@H]4O[C@H]4O[C@H](CN)[C@@H](O)C[C@H]4N)nn3)[C@@H](O[C@H]3O[C@H](CO)[C@@H](O)[C@H](N)[C@H]3O)[C@H](N)C[C@@H]2N)[C@H](N)C[C@@H]1O.O=C(O)C(F)(F)F.O=C(O)C(F)(F)F.O=C(O)C(F)(F)F.O=C(O)C(F)(F)F.O=C(O)C(F)(F)F.O=C(O)C(F)(F)F.O=C(O)C(F)(F)F.O=C(O)C(F)(F)F.O=C(O)C(F)(F)F.O=C(O)C(F)(F)F` [Compound 1, Tobramycin Homodimer 1], in assay [1], the “outer membrane permeabilization (NPN fluorescence)” value is “dose-dependent”. The “NPN fluorescence relative to PMBN (8 μg/ml)” value in assay [1] (compound 1 at 16 μg/ml) was “increased fluorescence”. Moreover, the “MIC of Compound 1” value in assay [2] (PAO1 (wild-type)), in assay [2] (PAO200 (efflux-deficient)) and in assay [2] (PAO750 (efflux-deficient)) was greater than 128 µg/mL throughout.

On to `CO[C@@H]1[C@@H](OC(N)=O)[C@@H](O)[C@H](Oc2ccc3c(O)c(NC(=O)c4ccc(O)c(CC=C(C)C)c4)c(=O)oc3c2C)OC1(C)C` [Novobiocin], for which the time-kill outcome is on record as “bacterial growth identical to their respective controls” in assay [3], “bacteriostatic” in assay [4] and “bacterial growth identical to their respective controls” in assay [5]. Besides, the “incubation time after which bactericidal” value in assay [6] is given as 24 h.
